# Oligonucleotides are written 5' to 3', each unit as a sugar letter and its base; * is a phosphorothioate linkage, no mark a phosphodiester; rarer units and linkages stand in square brackets, end groups in braces. Plain capitals give the bases only. {(C18)3CCH2} = lipid of three C18 alkyl chains on a quaternary carbon, linked through CH2-O-phosphodiester; {3LON} = triple hydrocarbon-chain lipid moiety added by triple chain phosphoramidite 4; d = 2'-deoxy (DNA)
# Experiments:
# PC-3 cells = experiment: MTT assay, in vitro growth inhibitory effects; type: cell-based, human; settings: transfection in the absence of Oligofectamine
# Description: The CR prostate cancer cell line PC-3 was purchased from the American Type Culture Collection (Rockville, Md., USA). The cells were maintained in Dulbecco's Modified Eagle's Medium (Invitrogen, Cergy Pontoise, France), supplemented with 10% fetal calf serum (FCS).
# (§1) Prostatic cell line were transfected with LASO#15 at various concentrations (from 30 nM to 100 nM), in OptiMEM® medium (Invitrogen), without serum and in the absence of Oligofectamine™ transfection reagent (Invitrogen).
# (§2) Serum was added 4 hours after transfection. Two or three days after transfection, the level of TCTP protein expression and GAPDH (used as housekeeping gene) were determined by performing western blotting, and the in vitro growth inhibitory effects of LASO#15 on PC-3 cells were assessed using an MTT assay.
# The MTT assay was performed as described previously (Rocchi et al., 2004, Cancer Res. 64:6595-602).
# TCTP protein = TCTP protein expression by western blot after transfection without Oligofectamine; type: cell-based, human; settings: PC-3 prostatic cells; absence of Oligofectamine; 30 nM to 100 nM, in particular 100 nM; two or three days after transfection; LASO#Scr negative control
# Description: Lipid-conjugated oligonucleotide, LASO#15 was tested on TCTP protein expression using western-blot (LASO#Scr was used as negative control).
# as §1, §2
# Western Blot analysis was performed as described previously (Rocchi et al., 2004, Cancer Res. 64:6595-602) with 1:2000 rabbit TCTP polyclonal antibody (Abcam Inc., Cambridge, UK). Loading levels were normalized using 1:5000 rabbit anti-glyceraldehyde-3-phosphate dehydrogenase polyclonal (Abcam Inc.).
# [1] = Aggregation behavior of LONs in aqueous media; type: physicochemical
# Description: As true surfactants, LONs can self assemble in aqueous media. […] The latter could be HPLC-purified and characterized by MS. […] […] Aqueous samples containing LONs were studied under different conditions including pure water and aqueous suspensions of varying ionic strength and temperature (25-45° C.). All the LONs investigated, namely ^3LON-T15, yielded small spherical objects ranging from approximately 8 to 20 nm in diameter as characterized by DLS, transmission and scanning electronic microscopies (TEM and SEM). […] The micellar architecture of these assemblies can be explained based upon the molecular dimensions of 15 nucleobase-long LONs. Indeed, such molecules are flexible, with cone shape structure and dimensions compatible with the self-aggregation into spherical micelles.
# [2] = Solubility of LONs in water; type: physicochemical; settings: adenosine-containing versus thymidine LON
# Description: At this point, the crude ^3LON-T15 and ^3LON-A15 behave quite differently. […] The LON eluted after ca. 42 min under these conditions. Fractions containing the LON were pooled and evaporated to dryness. The LON was dissolved in water and dried again two times to remove all residual traces of buffer. Yield of final ^3LON-T15 was excellent (40%).
# (§3) As true surfactants, LONs can self assemble in aqueous media. […] The latter could be HPLC-purified and characterized by MS. […] Consequently, dynamic light scattering, transmission electron microscopy and SEM experiments were carried out with the solutions of one purified LON only. Aqueous samples containing LONs were studied under different conditions including pure water and aqueous suspensions of varying ionic strength and temperature (25-45° C.). All the LONs investigated, namely ^3LON-T15, yielded small spherical objects ranging from approximately 8 to 20 nm in diameter as characterized by DLS, transmission and scanning electronic microscopies (TEM and SEM). […] The micellar architecture of these assemblies can be explained based upon the molecular dimensions of 15 nucleobase-long LONs. Indeed, such molecules are flexible, with cone shape structure and dimensions compatible with the self-aggregation into spherical micelles.
# [3] = Size of LON aggregates by DLS, TEM and SEM; type: physicochemical
# Description: Transmission Electron Microscopy (TEM). Samples were imaged by negative staining microscopy with a Hitachi H 7650 electron microscope. Samples containing LONs (concentrations and mean sizes are indicated in TEM images) were transferred to a carbon-coated copper grid for ten minutes. The sample was then dried and stained with 2.5% (W/W) of uranyl acetate in water for five minutes.
# Scanning Electron Microscopy (SEM). Samples were examined at an accelerating voltage of 10 kV. Typically […] of sample containing the LON aggregates were dried spread on polished stainless steel platelets and then coated with a 6-10 nm layer of gold-palladium alloy under vacuum with a sputter Coater Balzers SCD050. Observations were made with a Philips XL30S FEG instrument.
# as §3
substance,measurement,setting,value
(C18)3CCH2—O—P(═O)(—O[−1])-O-5′-AACTTGTTTCCTGCAGGTGA-3′-OH (antisense {(C18)3CCH2}-dAdAdCdTdTdGdTdTdTdCdCdTdGdCdAdGdGdTdGdA) [LASO#15],growth of PC-3 cells (MTT assay),PC-3 cells,inhibiting the growth of the PC-3 cells
same,TCTP protein expression (western blot),TCTP protein,specific inhibition of TCTP protein
"^3LON-A15: Triple chain polyA 15mer; dA15 (SEQ ID NO: 32) coupled at its 5′ end with triple chain phosphoramidite 4 (DNA AAAAAAAAAAAAAAA; DNA, 5' {3LON}, backbone not given here)",aggregation after cleavage and deprotection,[1]; crude LON,immediate and irreversible aggregation
same,solubility in water (relative),[2],less soluble in water than their thymidine counterparts
^3LON-T15: Triple chain polyT 15mer; dT15 (SEQ ID NO: 33) coupled at its 5′ end with triple chain phosphoramidite 4,aggregation on storage,[1]; after storage at −20° C.,slow aggregation tendency
same,effect of temperature on aggregate size,[3]; 25-45° C. range,poorly affected by temperature
same,sensitivity of aggregate size to ionic strength,[3]; DLS in water,poorly sensitive to ionic strength
same,change of micelle core on hybridization,"[3]; DLS, hybridization of the complementary dA15, not observed with ncDNA",contraction of the core micelle is observed
